From ChEMBL document CHEMBL3864162, “Discovery of potent inhibitors of the lysophospholipase autotaxin” (Bioorg Med Chem Lett, 2016)

Experiments:
[1] = Cmax in Balb-c nu/nu mouse at 30 mg/kg, po measured up to 7 hrs by UPLC/MS/MS spectrometry analysis; type: ADME, organism-based; parameters: dose 30 mg/kg, route oral; settings: in vivo
[2] = in vivo; settings: Balb-c nu/nu, mouse, blood, po, 100 mg/kg
[3] = Intrinsic clearance in rat liver microsomes assessed per gram of liver; type: ADME
[4] = AUC in Balb-c nu/nu mouse at 30 mg/kg, po measured up to 7 hrs by UPLC/MS/MS spectrometry analysis; type: ADME, organism-based; parameters: time < 7 hr, dose 30 mg/kg, route oral; settings: in vivo
[5] = Fraction unbound in rat plasma; type: ADME, cell-free
[6] = tested on: Mus musculus; assay: Reduction in plasma LPA C18:1 levels in Balb-c nu/nu mouse xenografted with human MDA-MB-231-luc cells at 30 to 100 mg/kg, po by UPLC/MS/MS analysis relative to control; type: functional
[7] = in vivo; settings: Balb-c nu/nu, mouse, blood, po, 30 mg/kg
[8] = Half life in Balb-c nu/nu mouse blood at 10 mg/kg, po measured up to 7 hrs by UPLC/MS/MS spectrometry analysis; type: ADME, organism-based
[9] = Intrinsic clearance in CD1 mouse liver microsomes assessed per gram of liver at 1 uM in presence of NADPH regenerating system measured up to 45 mins by UPLC/MS/MS analysis; type: ADME; settings: 0.75 h
[10] = AUC in Balb-c nu/nu mouse at 100 mg/kg, po measured up to 7 hrs by UPLC/MS/MS spectrometry analysis; type: ADME, organism-based; parameters: dose 100 mg/kg, time < 7 hr, route oral; settings: in vivo
[11] = tested on: Mus musculus; assay: Toxicity in Balb-c nu/nu mouse at 100 mg/kg, po bid administered for 5 days; type: organism-based; settings: in vivo, 120 h
[12] = biological target: T1, Autotaxin (Homo sapiens, UniProt Q13822); assay: Inhibition of ATX in human plasma assessed as decrease in LPA C18:1 levels after 24 hrs by horseradish peroxidase/choline oxidase-coupled assay
[13] = Half life in Balb-c nu/nu mouse blood at 100 mg/kg, po measured up to 7 hrs by UPLC/MS/MS spectrometry analysis; type: ADME, organism-based
[14] = biological target: T1, Autotaxin; assay: Inhibition of ATX in human plasma assessed as decrease in hydrolysis of lysophosphatidylcholine by measuring choline release after 24 hrs by horseradish peroxidase/choline oxidase-coupled assay; type: cell-free
[15] = species: Mus musculus; assay: animal or person; settings: Balb-c, Plasma
Description: Reduction in plasma LPA C20:4 levels in po dosed Balb-c nu/nu mouse xenografted with human MDA-MB-231-luc cells by UPLC/MS/MS analysis

[16] = Volume of distribution at steady state in CD1 mouse at 1 mg/kg, iv administered as bolus dose measured up to 7 hrs by UPLC/MS/MS spectrometry analysis; type: ADME, organism-based; settings: in vivo, read-out: Vdss
[17] = Cmax in Balb-c nu/nu mouse at 100 mg/kg, po measured up to 7 hrs by UPLC/MS/MS spectrometry analysis; type: ADME, organism-based; parameters: dose 100 mg/kg, route oral; settings: in vivo
[18] = Half life in Sprague-Dawley rat blood at 1 mg/kg, iv administered as bolus dose or 3 mg/kg, po administered via gastric gavage measured up to 20 hrs by UPLC/MS/MS spectrometry analysis; type: ADME, organism-based
[19] = species: Mus musculus; assay: animal or person; settings: Balb-c, Plasma; remark: listed apart in the source
Description: Reduction in plasma LPA C18:2 levels in po dosed Balb-c nu/nu mouse xenografted with human MDA-MB-231-luc cells by UPLC/MS/MS analysis

[20] = tested on: Mus musculus; assay: Reduction in plasma LPA C16:0 levels in Balb-c nu/nu mouse xenografted with human MDA-MB-231-luc cells at 30 to 100 mg/kg, po by UPLC/MS/MS analysis relative to control; type: functional
[21] = Cmax in Balb-c nu/nu mouse at 10 mg/kg, po measured up to 7 hrs by UPLC/MS/MS spectrometry analysis; type: ADME, organism-based; parameters: dose 10 mg/kg, route oral; settings: in vivo
[22] = Blood clearance in Sprague-Dawley rat at 1 mg/kg, iv administered as bolus dose measured up to 20 hrs by UPLC/MS/MS spectrometry analysis; type: ADME, organism-based
[23] = species: Mus musculus; assay: animal or person; settings: Balb-c, Plasma; remark: listed apart in the source
Description: Reduction in plasma LPA C16:0 levels in po dosed Balb-c nu/nu mouse xenografted with human MDA-MB-231-luc cells by UPLC/MS/MS analysis

[24] = tested on: Mus musculus; assay: Reduction in plasma LPA C20:4 levels in Balb-c nu/nu mouse xenografted with human MDA-MB-231-luc cells at 30 to 100 mg/kg, po by UPLC/MS/MS analysis relative to control; type: functional
[25] = AUC in Balb-c nu/nu mouse at 10 mg/kg, po measured up to 7 hrs by UPLC/MS/MS spectrometry analysis; type: ADME, organism-based; parameters: time < 7 hr, dose 10 mg/kg, route oral; settings: in vivo
[26] = Intrinsic clearance in human liver microsomes assessed per gram of liver at 1 uM in presence of NADPH regenerating system measured up to 45 mins by UPLC/MS/MS analysis; type: ADME; settings: 0.75 h
[27] = Half life in CD1 mouse blood at 1 mg/kg, iv administered as bolus dose measured up to 7 hrs by UPLC/MS/MS spectrometry analysis; type: ADME, organism-based
[28] = biological target: T1, Autotaxin; assay: Inhibition of human recombinant ATX using Rac-1-Palmitoyl-glycero-3-phosphocholine as substrate incubated for 2 hrs using ADHP fluorogenic peroxidase substrate by horseradish peroxidase/choline oxidase-coupled assay
[29] = Half life in Balb-c nu/nu mouse blood at 30 mg/kg, po measured up to 7 hrs by UPLC/MS/MS spectrometry analysis; type: ADME, organism-based
[30] = Fraction unbound in mouse plasma; type: ADME, cell-free
[31] = species: Mus musculus; assay: animal or person; settings: Balb-c, Plasma; remark: listed apart in the source
Description: Reduction in plasma LPA C18:1 levels in po dosed Balb-c nu/nu mouse xenografted with human MDA-MB-231-luc cells by UPLC/MS/MS analysis

[32] = Blood clearance in CD1 mouse at 1 mg/kg, iv administered as bolus dose measured up to 7 hrs by UPLC/MS/MS spectrometry analysis; type: ADME, organism-based
[33] = in vivo; settings: Sprague-Dawley, rat, po, 3 mg/kg
[34] = tested on: Mus musculus; assay: Reduction in plasma LPA C18:2 levels in Balb-c nu/nu mouse xenografted with human MDA-MB-231-luc cells at 30 to 100 mg/kg, po by UPLC/MS/MS analysis relative to control; type: functional

C[C@H](NC(=O)CCc1nc2cccnc2n1Cc1ccc(OC(F)(F)F)cc1)c1ccc(Cl)cc1 [CAMBRITAXESTAT]
Cmax [1]: 10.9 µM | bioavailability at 7 h [2]: 75% | CLH [3]: 15 mL/min/g | AUC at 7 h [4]: 15.2 µM·h | fraction unbound [5]: 0.02 | %max [6]: 89 - 93% | bioavailability at 7 h [7]: 64% | half-life [8]: 1.4 h | CLH [9]: 44.1 mL/min/g | AUC at 7 h [10]: 59.3 µM·h | Activity [11]: Non-Toxic | IC50 [12]: 0.038 µM | half-life [13]: 1.3 h | IC50 [14]: 0.014 to 0.024 µM | EC50 [15]: 0.046 µM | Vd [16]: 1.3 L/kg | Cmax [17]: 18.1 µM | half-life [18]: 5.4 h | EC50 [19]: 0.03 µM | %max [20]: 89 - 93% | Cmax [21]: 3.8 µM | clearance [22]: 1.14 L/h/kg | EC50 [23]: 0.008 µM | %max [24]: 89 - 93% | AUC at 7 h [25]: 3.2 µM·h | CLH [26]: 9.4 mL/min/g | half-life [27]: 1 h | IC50 [28]: 0.001 µM | half-life [29]: 0.9 h | fraction unbound [30]: 0.018 | EC50 [31]: 0.013 µM | clearance [32]: 2.46 L/h/kg | bioavailability at 20 h [33]: 28% | %max [34]: 89 - 93%
